Data reported in US11566032B2, “Radio-protective and chemo-protective substituted thiols” (TONIX PHARMACEUTICALS, INC., priority 2020, dated 2023).

Tests used:
[1] = test system: male mice exposed to total body irradiation (TBI); test: Phase 2 efficacy: survival of mice dosed prior to total body irradiation (TBI) at LD100/30; format: in vivo; conditions: for median survival time / animals survived until scheduled sacrifice (Day 30) / mice found dead / mice moribund sacrificed: 1000 mg/kg oral gavage prior to TBI 9.9 Gy; for median survival time: 11 male mice per group; for body weight gain: Days 5 to 9 after TBI 9.9 Gy, compared to the vehicle group; for survival of animals through 30 days post exposure: treated prior to total body irradiation (LD100/30)
Description: (§1) Male mice were randomized and assessed in two phases: 1) for maximum tolerated doses (MTDs) of PrC-210, DzCH2SH, and 2Pip-2PrSH to determine dose levels for the efficacy study and 2) to evaluate the efficacy of the compounds when administered 60+5 minutes prior to exposure to total body irradiation (TBI) at an LD100/30 dose (990 cGy) (Tables 1 and 2).
(§2) For Phase 1 or 2, sterile water (vehicle), PrC-210, DzCH2SH, and 2Pip2PrSH were administered at 10 mL/kg calculated based on the most recent body weight via oral gavage. Animals were not fasted prior to administration of the compounds or vehicle. Mice in Phase 1 were administered the dose on Day 1 and mice in Phase 2 were administered the dose 60+5 minutes prior to TBI on Day 0.
Irradiation was administered once to the whole body. TBI of mice were performed using a 6 MV LINAC photon source (TrueBeam STx source). Animals were irradiated at a dose rate of up to 80 cGy/min to the midline of the animals. The source irradiated animals to 50% of the dose from anterior-posterior direction and […] from the posterior-anterior direction. Dose measurements were performed with a PTW 31010 0.1 cc Semiflex Ion chamber.
(§3) All surviving animals were observed once daily for clinical signs (e.g., unusually low or high activity, lethargy, shivering, appearance of fur, bloody and water stool, and other symptoms of moribundity) at 1-2 hours post-irradiation and/or post-dose and once daily on non-dosing days until Day 4 (Phase 1) or Day 30 (Phase 2).
In Phase 2 (Table 2), survival curves of mice treated with vehicle, PrC-210, DzCH2SH or 2Pip-PrSH prior to TBI with 9.9 Gy were measured (FIG. 1). […] Five mice were moribund sacrificed, and 6 mice were found dead. Survival in the Group 13 animals was 0% and median survival time was 8 days. In mice administered with PrC-210 before TBI (Group 14), 4 animals survived until scheduled sacrifice (Day 30) while 7 mice were moribund sacrificed. […] In mice administered with DzCH2SH before TBI (Group 15), 3 animals survived until scheduled sacrifice (Day 30) while 7 mice were moribund sacrificed, and one mouse was found dead. […] Five mice were moribund sacrificed and six mice were found dead. Survival in the Group 16 mice was 0% and median survival time was 10 days.

[2] = Phase 1 maximum tolerated dose (MTD) in mice, oral gavage; format: in vivo; conditions: 1,000 mg/kg, male mice
Description: as §1, §2, §3
In Phase 1 (Table 1), all animals were normal when observed and all body weights were within normal range. The dose level of 1000 mg/kg was selected for Phase 2.

[3] = Exposure of the solid salt to the atmosphere (hygroscopicity); format: physicochemical; conditions: 10 minute exposure of a small amount to the atmosphere, diHCl salt
Description: Concentration (rotary evaporator at ambient temperature) provided a crude oily residue which was triturated with hexane producing a white solid. The hexane was removed (via pipette suction) and replaced with dry THE (25 ml). After an additional 10 minutes of trituration, the THF was removed and replaced with dry hexane (25 ml). After an additional 10 minutes of trituration, the hexane was removed and the resulting white solid was dried in vacuo over P2O5 providing 1.95 grams of diHCl salt of PrC-210 (88%).
In Reaction J: 34 ml of HCl in methanol, 6 eq. (1.25 M solution, Aldrich Cat #17935) was added to a solution of compound X, 2.5 grams, 0.007 moles dissolved in 10 mL dry methanol in a flask under argon and equipped for magnetic stirring and the reaction was stirred at room temperature for 24 hours. […] The solution was degassed by gently bubbling argon into the solution for 30 minutes. […]
In Reaction P: Compound XVI, 2.2 grams, 0.0058 moles was placed in a round-bottom flask equipped for magnetic stirring followed by 15 mL anhydrous trifluoroacetic acid (CF3COOH, Aldrich #8.08260). The flask was fitted with a condenser and the solution was refluxed for 5 hours whereupon it was determined that the reaction was complete using TLC by observing the disappearance of starting material and the appearance of a highly polar product, which stained positive with ninhydrin. […]

[4] = test system: mice exposed to whole body irradiation; test: Radiation dose required to kill 50% of mice (LD50), whole body irradiation; format: in vivo; conditions: oral gavage 60 minutes prior to whole body irradiation 2-12 Gy, 30 days
Description: The affect of the compounds according to the disclosure on the dose of radiation required to kill 50% of mice (LD50) is assessed.
Mice are assigned to three groups (Groups 1, 2 and 3). A control group, Group 1, is treated via oral gavage with vehicle (Lactated Ringer's and 5% dextrose, adjusted to pH 7.3 with sodium bicarbonate) 60 minutes prior to whole body irradiation (2 Gy). Group 2 is treated via oral gavage with PrC-210, as a positive control, dissolved in Lactated Ringer's at a dose of 200 mg/kg 60 minutes prior to whole body irradiation (2 Gy). Group 3 is treated via oral gavage with compound 1 (PrC-210-PT) dissolved in Lactated Ringer's at a dose of 308 mg/kg 60 minutes prior to whole body irradiation (2 Gy). The mortality of the three groups is assessed for 30 days post irradiation.
The experiment is repeated using varying radiation doses of 4, 6, 8, 10 and 12 Gy. The LD50 for each group was determined.
The experiment is repeated to assess compounds 2-23 as radioprotectors.

[5] = test system: mice exposed to 8 Gy (LD100) radiation; test: Protection of mice from lethal radiation (8 Gy, LD100); format: in vivo; conditions: oral gavage 15-90 minutes prior to 8 Gy (LD100), 60 days post irradiation
Description: The radioprotective efficacy of the thiols, prodrugs and double prodrugs according to this disclosure is assessed in mice. The compounds of the disclosure are administered via oral gavage to mice, and are compared to mice that have been administered 3-(methylamino)-2-(methylaminomethyl)propane-1-thiol (PrC-210), as well as to a control group or mice that are administered vehicle (i.e., containing no radioprotective additive).
More specifically, mice are assigned to three groups (Groups 1, 2 and 3). A control group, Group 1, is treated via oral gavage with vehicle (Lactated Ringer's and 5% dextrose, adjusted to pH 7.3 with sodium bicarbonate) 15-90 minutes prior to a dose of 8 Gy (LD100) radiation. Group 2 is treated via oral gavage with PrC-210, as a positive control, dissolved in Lactated Ringer's at a dose of 200 mg/kg 15-90 minutes prior to irradiation with 8 Gy (LD100). Group 3 is treated via oral gavage with compound 1 (PrC-210-PT) dissolved in Lactated Ringer's at a dose of 308 mg/kg 15-90 minutes prior to irradiation with 8 Gy (LD100). The mortality of the three groups is assessed for 60 days post irradiation. The experiment is repeated with doses of PrC-210 ranging from 200 mg/kg to 450 mg/kg. Molar equivalent dosages of the test compound (compound 1, Prc-210-PT) to PrC-210 are also assessed.
The experiment is repeated to assess the efficacy of compounds 2-23 as radioprotectors.

[6] = in vivo; cited from earlier work
[7] = clinical signs after TBI 9.9 Gy, of 11 mice

| Structure (SMILES) | median survival time [1] | animals survived until scheduled sacrifice (Day 30) ([1]; of 11 mice) | mice found dead ([1]; of 11 mice) | mice moribund sacrificed ([1]; of 11 mice) | body weight gain [1] | Cold to touch skin, number of animals [1, 7] | Eye discharge, number of animals [1, 7] | Hypoactivity, number of animals [1, 7] | Lethargy and swollen head, number of mice [1, 7] | Swollen eye, number of animals [1, 7] | toxicity at the highest tested dose [2] | survival of animals through 30 days post exposure [1] | signs of hygroscopicity [3] | also measured |
| --- | --- | --- | --- | --- | --- | --- | --- | --- | --- | --- | --- | --- | --- | --- |
| CC(C)(S)C1CNCCN1 (stereo not drawn) [Compound 2Pip-2PrSH, 2-(piperazin-2-yl)propane-2-thiol] | 10 days | no animals survived | six | Five | did not gain body weights | 4 | one | 5 | one | one | did not produce any toxicity | – | – | Survival ([1]; 1000 mg/kg oral gavage 60+5 minutes prior to TBI 9.9 Gy (LD100/30), Day 30, 11 male mice per group): 0% |
| SCC1CNCCNC1 [DzCH2SH, (1,4-diazepan-6-yl)methanethiol] | 11 days | 3 | one | 7 | did not gain body weights | one | 2 | 5 | one | 2 | did not produce any toxicity | increased survival | did not show any signs of hygroscopicity | mortality rate at 8-days post-irradiation ([1]; 1000 mg/kg oral gavage prior to TBI 990 cGy): efficacious effects; Eye opacity, number of mice [1, 7]: one; Labored breathing, number of mice [1, 7]: one; eye cloudy, number of animals [1, 7]: 2; sunken eye, number of animals [1, 7]: 1 |
| CNCC(CS)CNC [PrC-210, 3-(methylamino)-2-((methylamino)methyl)propane-1-thiol, reference compound] | 11 days | 4 | – | 7 | significantly higher | – | one | 5 | – | one | did not produce any toxicity | increased survival | did not show any signs of hygroscopicity | mean body weight ([1]; Day 9 after TBI 9.9 Gy): higher than body weights in the Groups 13, 15 and 16; Tremor, number of mice [1, 7]: 4; LD50 (radiation dose), control group versus treated mice [4]: control group demonstrates a lower LD50 compared to the mice treated; rate of survival, control group versus treated mice [5]: control group demonstrates a reduced rate of survival compared to the mice treated; side effects compared with Amifostine [6]: less side effects than Amifostine |
